How the values were obtained:
[1] = test system: 24 T TNBC PDX; assay: TNBC PDX model 24T; assay type: in vivo, NOD-SCID-IL2Rγc–/– mice
Experimental: Cohorts of about 30 female mice were seeded with thawed single cell suspensions of early passage human breast tumors (passage 2 or 3). Briefly, 150,000–250,000 cells were resuspended in 10 µl of transplantation buffer (50% fetal calf serum, 10% of a 0.04% trypan blue solution and 40% PBS) and growth-factor-reduced Matrigel [BD] at a ratio of 3:1, and injected into the cleared mammary fat pads of 3- or 4-week-old NOD-SCID-IL2Rγc–/– female mice. Mice were monitored for tumor development three times weekly and tumor size measured using digital Vernier calipers. Tumor volume was estimated by measuring the minimum and maximum tumor diameters using the formula: (minimum diameter)^2 x (maximum diameter)/2. Once tumors arose, mice were randomized into treatment arms. Treatment was initiated when the tumor volume reached 80–120 mm^3. Randomization and tumor measurements were managed using the Study Director software (v 3.0, studylog). Mice were sacrificed at the first measurement where tumor volume exceeded 600 mm^3, or if their health deteriorated for reasons other than disease progression or drug toxicity (censored event).
Mice were treated with either docetaxel (10 mg/kg; i.p.; once), cisplatin (4 mg/kg; i.p.; once) or WEHI-7326 (20 mg/kg; twice a week (Monday and Thursday); i.v.). Vehicle treated mice were administered with the vehicle for WEHI-7326. Docetaxel was resuspended at 2 mg/ml in PBS:Tween-80:ethanol = 90:5:5 (v/v/v). WEHI-7326 was resuspended at 2 mg/ml in saline.

[2] = test system: LoVo; assay: Cell growth inhibition assay, LoVo; assay type: cell-based; settings: Homo sapiens, colon carcinoma, 72 h viability assay, CellTiterGlo, mean of 3 ± SEM, read-out: IC50 (inhibition of cellular proliferation)
Experimental: (§1) Cells were plated at a density of between 500 to 5000 cells per well for adherent cell lines depending on doubling time, and 15,000 cells per well for lymphoblastic leukemia cell lines, in a 96-well plate in 200 μl of growth media. Plates were incubated overnight at 37 °C before adding the inhibitors. Inhibitors were serially diluted from the stock solutions in complete medium and added to the cells. […] Cell viability was assessed by the AlamarBlue (Invitrogen) or CellTiterBlue/Glo (Promega) method according to manufacturer’s instructions. The curve fits and IC50 values were generated in PRISM (GraphPad, San Diego, CA).

[3] = Fourteen day maximum tolerated dose study, twice weekly i.v. (non-GLP); assay type: in vivo
Experimental: Fourteen day maximum tolerated dose (MTD) study of WEHI-7326 dihydrochloride following twice weekly intravenous administration in female Sprague-Dawley rats. All treatments were administered i.v. (tail vein) in a dosing volume of 10 mL/kg. Treatment was administered in a staggered manner, beginning with WEHI-7326 at 7.5 mg/kg and then increasing the dose on subsequent days. For all data calculations and presentation, the first day of treatment for each group is designated as Day 1. One animal died immediately following a single dose of WEHI-7326 at 60 mg/kg (Group 2). The remaining scheduled treatments at this dose were cancelled and dosing recommenced at a reduced dose of 10 mg/kg to the remaining 3 animals in this group. Intravenous (tail vein) treatment of female Sprague-Dawley rats with WEHI-7326 was tolerated without serious adverse events or body weight loss exceeding the ethical limit at doses of 7.5 and 10 mg/kg in this study.
Sixteen female Sprague-Dawley rats were microchipped and randomised into four groups of four based on body weight two days prior to the first day’s treatment. The test article was to be tested at four dose concentrations of 7.5 mg/kg, 15 mg/kg, 30 mg/kg and 60 mg/kg, administered i.v. via tail vein injection at a dose rate of 10 mL/kg. […] Animals were to be dosed on their respective Study Day 1, then twice weekly over two weeks. Body weights were measured once prior to dose administration, then daily for the duration of the study and at termination. Clinical observations were performed on a daily basis. Due to the immediate death of one animal dosed with WEHI-7326 at 60 mg/kg and subsequent development of signs of toxicity in animals that had received three doses at 15 mg/kg and two doses at 30 mg/kg, the dose level for the remaining three animals in Group 4 was reduced to 10 mg/kg (four doses). As treatment with WEHI-7326 was tolerated without serious adverse events or body weight loss exceeding the ethical limit at doses of 7.5 and 10 mg/kg in this study, the maximum tolerated dose was determined to be 10 mg/kg.

[4] = test system: LIM1899; assay: Cell growth inhibition assay, LIM1899; assay type: cell-based; settings: Homo sapiens; LIM1899, colon carcinoma; 72 h viability assay, CellTiterGlo; mean of 3 ± SEM; read-out: IC50 (inhibition of cellular proliferation)
Experimental: as §1

[5] = female rats, 7.5 mg/kg twice weekly i.v.
[6] = female rats, 10 mg/kg twice weekly i.v.
[7] = female rats, 15 mg/kg twice weekly i.v.
[8] = female rats, 30 mg/kg twice weekly i.v.

COc1ccc(CNc2nc(NCc3ccc(CN)cc3)nc(NN3CC(=O)NC3=O)n2)cc1 [WEHI-7326]
Adverse effects in treatment arm ([1]; 24 T PDX mice, 20 mg/kg i.v. twice a week, n = 7): 1 sick, 1 found dead, 1 with back leg paralysis | Survival time ([1]; 24 T PDX, docetaxel 10 mg/kg i.p. once, WEHI-7326 20 mg/kg i.v. biweekly): 45 days | IC50 [2]: 42.2 ± 9.9 nM | Lethality ([3]; female Sprague-Dawley rats, 60 mg/kg i.v.): acutely lethal | Mild red staining right fore limb (number of animals) [3, 5]: 1/4 | No remarkable observation (number of animals) [3, 5]: 3/4 | Mild piloerection (number of animals) [3, 6]: 3/3 | Mild red staining of snout, fore limbs and/or head (number of animals) [3, 6]: 3/3 | Urine-stained fur (number of animals) [3, 6]: 1/3 | Discharge both eyes (number of animals) [3, 7]: 1/4 | Early termination (StudyDay 9) due to adverse clinical signs and excess body weight loss (number of animals) [3, 7]: 3/4 | Mild red staining of eyes and or head (number of animals) [3, 7]: 2/4 | Mild squinting both eyes (number of animals) [3, 7]: 1/4 | Mild/moderate hunched posture (number of animals) [3, 7]: 4/4 | Mild/moderate piloerection (number of animals) [3, 7]: 4/4 | Urine-stained fur (number of animals) [3, 7]: 1/4 | Early termination (StudyDay 5) due to adverse clinical signs and excess body weight loss (number of animals) [3, 8]: 4/4 | Mild excess salivation (number of animals) [3, 8]: 2/4 | Mild piloerection (number of animals) [3, 8]: 4/4 | Mild red staining of limbs, eyes, snout and or head (number of animals) [3, 8]: 4/4 | Mild squinting both eyes (number of animals) [3, 8]: 4/4 | Mild/moderate hunched posture (number of animals) [3, 8]: 4/4 | Mild/moderate labored breathing (number of animals) [3, 8]: 4/4 | Mild/moderate lethargy (number of animals) [3, 8]: 4/4 | Urine-stained fur (number of animals) [3, 8]: 4/4 | Found dead immediately after administration (number of animals) ([3]; female rats, 60 mg/kg i.v., single dose): 1/1 | MTD at 14 days ([3]; rat, in vivo, iv, female Sprague-Dawley rats, twice weekly i.v., 14 day): 10 mg/kg | IC50 [4]: 31.3 ± 2.6 nM
